In patent publication US20130317214A1, “METHOD FOR PRODUCING MALEATE USING WET CRYSTAL” (KYORIN PHARMACEUTICAL CO., LTD., priority 2010, published 2013):

Key:
[1] = Stability test of compound (2) (powder X-ray diffraction); format: physicochemical; conditions: sealed in a brown bottle, stored at 25° C. for 2 weeks and 4 weeks
Method: A filling section of a plate sample holder made of glass was filled with a sample, and powder x-ray diffraction of the sample was then measured using RINT2200 powder x-ray diffractometer manufactured by Rigaku Corporation.
Tube current: 36 mA Tube voltage: 40 kV Scanning rate: 2°/min wavelength: 1.5405 Å (Kα1), 1.5443 Å (Kα2), 1.3922 Å (Kβ1) Divergence slit: 1° Receiving slit: 0.15 mm Scattering slit: 1° Anticathode: copper Scanning range: 5 to 40°
The wet crystal of the compound (2) (Example 1) and the dried product (Reference Example 1) were each sealed in a brown bottle, and stored at 25° C. for 2 weeks and 4 weeks. After the storage, the powder x-ray diffraction of each sample was measured in accordance with the method of Test Example 1.

[2] = Stability test of compound (2) (physical properties); format: physicochemical; conditions: for physical properties when stored under a condition of 30° C.: storage time not given

physical properties when stored under a condition of 30° C. [2]	physical properties on 3 days after the storage at 30° C. ([2]; sealed in a brown bottle, 3 days)	Structure (SMILES)	crystal state by powder x-ray diffraction after storage [1]
the state of white powder was maintained	–	CCc1cc(OC)cc2nc(-c3cccnc3N3CC[C@H](N(C)C)C3)oc(=O)c12 [wet crystal of the compound (2)]	change in the crystal state of the wet crystal of the compound (2) was not observed
changed into a glassy solid	changed into a glassy mass	CCc1cc(OC)cc2nc(-c3cccnc3N3CC[C@H](N(C)C)C3)oc(=O)c12 [dried product of the compound (2)]	complete amorphous form
